Biological target: T1, human MMP-9 (Homo sapiens, UniProt P14780)
T1 construct: purchased Yagai, Japan
Experiment: Inhibitory activity of human MMP-9
Format: biochemical
Details: commercial kit (Yagai, Japan); degradation of FITC-labeled bovine type IV collagen after incubation for 4 hours at 42° C.
Description: Inhibitory Activity of Human MMP-9
The inhibitory activity of test compounds against human MMP-9 were measured by using commercial kits (Yagai, Japan). Gelatinolytic activity was determined by monitoring the degradation of FITC-labeled bovine type IV collagen after incubation for 4 hours at 42° C. The amount of degraded collagen was estimated by measuring the fluorescence intensity at 495 nm (excitation) and 520 nm (emission).
Inhibitory activity of human MMP-9 as mentioned above.

T1 sequence (P14780 94-707): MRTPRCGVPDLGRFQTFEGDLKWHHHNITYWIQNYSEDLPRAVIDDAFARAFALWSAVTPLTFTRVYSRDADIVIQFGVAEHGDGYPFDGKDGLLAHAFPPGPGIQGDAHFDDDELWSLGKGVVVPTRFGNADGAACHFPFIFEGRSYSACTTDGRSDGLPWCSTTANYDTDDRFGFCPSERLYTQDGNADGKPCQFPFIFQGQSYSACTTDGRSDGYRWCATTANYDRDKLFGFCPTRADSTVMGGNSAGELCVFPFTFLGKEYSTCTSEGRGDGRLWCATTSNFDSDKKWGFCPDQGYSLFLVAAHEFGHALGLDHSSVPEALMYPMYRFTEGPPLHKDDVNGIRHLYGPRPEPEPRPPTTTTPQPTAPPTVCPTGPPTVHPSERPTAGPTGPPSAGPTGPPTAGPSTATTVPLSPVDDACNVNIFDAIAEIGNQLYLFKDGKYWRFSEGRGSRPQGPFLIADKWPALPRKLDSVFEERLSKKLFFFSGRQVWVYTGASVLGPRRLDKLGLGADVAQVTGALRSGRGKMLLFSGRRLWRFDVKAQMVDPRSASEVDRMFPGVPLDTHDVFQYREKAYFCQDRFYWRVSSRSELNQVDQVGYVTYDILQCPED

IC50: 2.85 nM
SMILES: COc1ccc(-c2ccc(C3(CC(=O)NO)CCN(S(C)(=O)=O)CCS3(=O)=O)s2)cc1 (stereo not shown) [Example 17, N-hydroxy-2-[7-(5-(4-methoxyphenyl)-2-thienyl)-4-methanesulfonyl-1,1-dioxoperhydro-1,4-thiazepin-7-yl]acetamide]

Source: US6967197B2, “Thiazepinyl hydroxamic acid derivatives as matrix metalloproteinase inhibitors” (Fujisawa Pharmaceutical Co., Ltd., priority 2000, dated 2005)
